From ChEMBL document CHEMBL4145497, “Discovery of 2-aminothiazolyl berberine derivatives as effectively antibacterial agents toward clinically drug-resistant Gram-negative Acinetobacter baumanii” (Eur J Med Chem, 2018) come the findings set out here.

Common to all, as to format: functional
For assay [1], the system named is Staphylococcus aureus. Description: Antibacterial activity against Staphylococcus aureus ATCC 25923 after 18 to 24 hrs by CLSI two fold serial dilution method.
In assay [2] the test system is Staphylococcus aureus. Briefly: Antibacterial activity against methicillin-resistant Staphylococcus aureus N315 after 18 to 24 hrs by CLSI two fold serial dilution method.
Assay [3] relates to Bacillus subtilis. Briefly: Antibacterial activity against Bacillus subtilis ATCC 21216 after 18 to 24 hrs by CLSI two fold serial dilution method.
The subject of assay [4] is Micrococcus luteus. Description: Antibacterial activity against Micrococcus luteus ATCC 4698 after 18 to 24 hrs by CLSI two fold serial dilution method.
In assay [5] the test system is Enterococcus faecalis. Description: Antibacterial activity against drug-resistant Enterococcus faecalis after 18 to 24 hrs by CLSI two fold serial dilution method.
Assay [6] deals with Escherichia coli. Briefly: Antibacterial activity against Escherichia coli DH52 after 18 to 24 hrs by CLSI two fold serial dilution method.
Assay [7] concerns Escherichia coli. Briefly: Antibacterial activity against drug-resistant Escherichia coli after 18 to 24 hrs by CLSI two fold serial dilution method.
Assay [8] has as its system Pseudomonas aeruginosa. Briefly: Antibacterial activity against Pseudomonas aeruginosa ATCC 27853 after 18 to 24 hrs by CLSI two fold serial dilution method.
For assay [9], the system named is Pseudomonas aeruginosa. Briefly: Antibacterial activity against drug-resistant Pseudomonas aeruginosa after 18 to 24 hrs by CLSI two fold serial dilution method.
In assay [10] the test system is Klebsiella pneumoniae. Briefly: Antibacterial activity against drug-resistant Klebsiella pneumoniae after 18 to 24 hrs by CLSI two fold serial dilution method.
Assay [11] deals with Acinetobacter baumannii. Description: Antibacterial activity against drug-resistant Acinetobacter baumannii after 18 to 24 hrs by CLSI two fold serial dilution method.
Assay [12] concerns Candida albicans. Description: Antifungal activity against Candida albicans ATCC 76615 by CLSI two fold serial dilution method.
The test system of assay [13] is Cyberlindnera jadinii. Briefly: Antifungal activity against Candida utilis ATCC 9950 by CLSI two fold serial dilution method. The settings on record: Williopsis jadinii.
Assay [14] deals with Pichia norvegensis. Description: Antifungal activity against Candida mycoderma ATCC 96918 by CLSI two fold serial dilution method.
In assay [15] the test system is Aspergillus flavus. Briefly: Antifungal activity against Aspergillus flavus ATCC 204304 by CLSI two fold serial dilution method.
For assay [16], the system named is Saccharomyces cerevisiae. Briefly: Antifungal activity against Saccharomyces cerevisiae ATCC 9763 by CLSI two fold serial dilution method.
In assay [17] the test system is Candida parapsilosis. Description: Antifungal activity against Candida parapsilosis ATCC 22019 by CLSI two fold serial dilution method. To be noted: Lodderomyces parapsilosis.
For assay [18], the system named is Candida albicans. Briefly: Antifungal activity against drug-resistant Candida albicans by CLSI two fold serial dilution method.
Assay [19] deals with Candida tropicalis. Briefly: Antifungal activity against drug-resistant Candida tropicalis by CLSI two fold serial dilution method.
The test system of assay [20] is Aspergillus fumigatus. Description: Antifungal activity against drug-resistant Aspergillus fumigatus by CLSI two fold serial dilution method.

Structures are written as SMILES. Converted amounts (≈) assume the structure as drawn.

As usually defined, the MIC is the lowest concentration that inhibits growth of the organism. A high value points to a need for much substance. With `COc1cc(/C=N/NC(N)=S)c2c(c1OCc1cccc(Cl)c1)CN1CCc3cc4c(cc3C1C2)OCO4` (configuration not stated), the minimal inhibitory concentration (MIC) in assay [1] was 60 µM (≈ 33.1 µg/mL); in assay [2] it was 120 µM (≈ 66.1 µg/mL); in assay [3], 120 µM (≈ 66.1 µg/mL); in assay [4] it was 470 µM (≈ 259 µg/mL); in assay [5], 230 µM (≈ 127 µg/mL); in assay [6] it was 230 µM (≈ 127 µg/mL). Also, the MIC came out at 470 µM (≈ 259 µg/mL) in assay [7]; 230 µM (≈ 127 µg/mL) in assay [8]; 470 µM (≈ 259 µg/mL) in [9]; 120 µM (≈ 66.1 µg/mL) in assay [10]; 120 µM (≈ 66.1 µg/mL) in [11]; 230 µM (≈ 127 µg/mL) in assay [12]. In addition, the minimal inhibitory concentration (MIC) in assay [13] was determined as 470 µM (≈ 259 µg/mL); in assay [14], 120 µM (≈ 66.1 µg/mL); in assay [15], 230 µM (≈ 127 µg/mL); in assay [16], 230 µM (≈ 127 µg/mL); in assay [17], 120 µM (≈ 66.1 µg/mL); in assay [18] it was 470 µM (≈ 259 µg/mL). For the same compound, the MIC in [19] turned out to be 230 µM (≈ 127 µg/mL); in assay [20], 120 µM (≈ 66.1 µg/mL).

For the compound `COc1cc(/C=N/NC(N)=S)c2c(c1OCCO)CN1CCc3cc4c(cc3C1C2)OCO4` (configuration not stated), the MIC in assay [1] came to 270 µM (≈ 127 µg/mL); in [2], 270 µM (≈ 127 µg/mL); in [3], 270 µM (≈ 127 µg/mL); in assay [4] it was 270 µM (≈ 127 µg/mL); in assay [5], 30 µM (≈ 14.1 µg/mL); in [6], 270 µM (≈ 127 µg/mL). In addition, the MIC was determined as 270 µM (≈ 127 µg/mL) in assay [7]; 140 µM (≈ 65.9 µg/mL) in assay [8]; 140 µM (≈ 65.9 µg/mL) in assay [9]; 270 µM (≈ 127 µg/mL) in assay [10]; 540 µM (≈ 254 µg/mL) in assay [11]; 270 µM (≈ 127 µg/mL) in assay [12]. Moreover, the MIC in assay [13] was found to be 270 µM (≈ 127 µg/mL); in assay [14], 140 µM (≈ 65.9 µg/mL); in [15], 270 µM (≈ 127 µg/mL); in assay [16], 540 µM (≈ 254 µg/mL); in assay [17], 20 µM (≈ 9.41 µg/mL); in [18], 270 µM (≈ 127 µg/mL). In addition, the MIC in assay [19] and in assay [20] was 270 µM (≈ 127 µg/mL) throughout.

On to `CCCCCCCCOc1c(OC)cc(/C=N/Nc2nccs2)c2c1CN1CCc3cc4c(cc3C1C2)OCO4` (configuration not stated), for which the minimal inhibitory concentration (MIC) is 230 µM (≈ 129 µg/mL) in assay [1]; 450 µM (≈ 253 µg/mL) in assay [3]; 450 µM (≈ 253 µg/mL) in [4]; 450 µM (≈ 253 µg/mL) in assay [6]; 230 µM (≈ 129 µg/mL) in assay [8]; 230 µM (≈ 129 µg/mL) in [12]. For the same compound, the minimum inhibitory concentration (MIC) in assay [13] was 460 µM (≈ 259 µg/mL); in assay [14], 460 µM (≈ 259 µg/mL); in [15], 460 µM (≈ 259 µg/mL); in [16] it was 460 µM (≈ 259 µg/mL); in [17] it was 230 µM (≈ 129 µg/mL).

Take `COc1cc(/C=N/NC(N)=S)c2c(c1OCc1ccc([N+](=O)[O-])cc1)CN1CCc3cc4c(cc3C1C2)OCO4` (configuration not stated): the MIC in [1] amounted to 230 µM (≈ 129 µg/mL); in assay [2], 230 µM (≈ 129 µg/mL); in assay [3] it was 460 µM (≈ 258 µg/mL); in [4], 110 µM (≈ 61.8 µg/mL); in assay [5] it was 230 µM (≈ 129 µg/mL); in assay [6] it was 110 µM (≈ 61.8 µg/mL). For the same compound, the MIC in [7] came out at 110 µM (≈ 61.8 µg/mL); in assay [8], 230 µM (≈ 129 µg/mL); in assay [9], 230 µM (≈ 129 µg/mL); in [10], 460 µM (≈ 258 µg/mL); in assay [11], 460 µM (≈ 258 µg/mL); in [12], 230 µM (≈ 129 µg/mL). Also, the MIC in assay [13] stood at 460 µM (≈ 258 µg/mL); in assay [14] it was 230 µM (≈ 129 µg/mL); in assay [15] it was 460 µM (≈ 258 µg/mL); in assay [16] it was 460 µM (≈ 258 µg/mL); in [17] it was 110 µM (≈ 61.8 µg/mL); in [18] it was 230 µM (≈ 129 µg/mL). Also, the MIC in [19] and in assay [20] was 460 µM (≈ 258 µg/mL) throughout.

Consider `CCn1cc(C(=O)O)c(=O)c2cc(F)c(N3CCNCC3)cc21` [NORFLOXACIN], for which the minimal inhibitory concentration (MIC) in [1] is 2 µM (≈ 0.639 µg/mL); in [2] it was 30 µM (≈ 9.58 µg/mL); in [3] it was 3 µM (≈ 0.958 µg/mL); in [4], 6 µM (≈ 1.92 µg/mL); in [5], 800 µM (≈ 255 µg/mL); in [6] it was 50 µM (≈ 16 µg/mL). Further, the MIC in [7] was 1600 µM (≈ 511 µg/mL); in [8] it was 50 µM (≈ 16 µg/mL); in assay [9], 1600 µM (≈ 511 µg/mL); in [10], 800 µM (≈ 255 µg/mL); in assay [11] it was 800 µM (≈ 255 µg/mL).

On to `COc1cc(/C=N/NC(N)=S)c2c(c1OCc1ccccc1)CN1CCc3cc4c(cc3C1C2)OCO4` (configuration not stated), for which the MIC in [1] was 120 µM (≈ 62 µg/mL); in assay [2], 120 µM (≈ 62 µg/mL); in [3], 250 µM (≈ 129 µg/mL); in [4], 250 µM (≈ 129 µg/mL); in assay [5], 250 µM (≈ 129 µg/mL); in assay [6], 250 µM (≈ 129 µg/mL). Moreover, the minimal inhibitory concentration (MIC) in assay [7] is 250 µM (≈ 129 µg/mL); in assay [8], 250 µM (≈ 129 µg/mL); in assay [9], 250 µM (≈ 129 µg/mL); in [10], 500 µM (≈ 258 µg/mL); in [11], 120 µM (≈ 62 µg/mL); in assay [12], 250 µM (≈ 129 µg/mL). For the same compound, the minimum inhibitory concentration (MIC) in assay [13] is 250 µM (≈ 129 µg/mL); in assay [14] it was 500 µM (≈ 258 µg/mL); in assay [15], 250 µM (≈ 129 µg/mL); in assay [16] it was 250 µM (≈ 129 µg/mL); in assay [17], 30 µM (≈ 15.5 µg/mL); in [18], 250 µM (≈ 129 µg/mL). The MIC in assay [19] stood at 250 µM (≈ 129 µg/mL); in [20], 60 µM (≈ 31 µg/mL).
